Experimental data taken from the supplement of paper PMC6470124.

Tests used:
[1] = absolute recovery over vacuum-assisted evaporative concentration; higher = better recovery; conditions: enrichment method: VEC
How it was run: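 Standards were spiked into water samples before concentration, after concentration or not at all; volumes were 6 mL influent, 15 mL effluent and 60 mL surface or nanopure water. Spiking levels were 200 ng/L for nanopure and surface water and 1000 ng/L for wastewater, adjusted by class and compound. After evaporation at 55 °C and 20 mbar to about 0.3 mL, samples were brought to 0.4 mL, centrifuged, given internal standards and analysed by LC-HRMS/MS. Absolute recovery equals (response ratio pre − unspiked)/(post − unspiked) × 100, based on averages of ≥ 2 replicates.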

[2] = absolute recovery over mixed-bed multilayer solid-phase extraction; higher = better recovery; conditions: enrichment method: SPE
How it was run: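 Elution from a three-layer mixed-bed cartridge used basic followed by acidic ethyl acetate/methanol, after loading either 1000 mL of unfiltered nanopure water or 100–250 mL of wastewater that had been set to pH 6.5 and glass-fibre filtered. Standards went in before or after extraction, or were left out, at 200 ng/L (water) or 1000 ng/L (wastewater), with class exceptions. Internal standards were added afterwards, and measurement was by liquid chromatography with high-resolution tandem mass spectrometry in both ionisation modes. For absolute recovery, background-corrected response ratios of pre-spiked samples were compared with those of post-spiked samples and averaged over at least two replicates.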

[3] = LC retention time (Atlantis T3, 5-95% MeOH gradient, 0.1% formic acid); higher = more retained / less polar
How it was run: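 Retention times refer to reference standards measured by liquid chromatography with high-resolution tandem mass spectrometry. Separation was on an Atlantis T3 C18 column (3 × 150 mm, 3 μm) at 0.3 mL/min with a 5 to 95% methanol gradient over 17.5 min, both solvents carrying 0.1% formic acid. Positive and negative electrospray were run separately on a QExactive Plus, and TraceFinder peak integration (5 ppm tolerance, at least three points per peak) was reviewed by hand.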

absolute recovery ([1]; wastewater effluent) [%]	absolute recovery ([1]; wastewater influent) [%]	absolute recovery ([2]; nanopure water) [%]	absolute recovery ([2]; surface water) [%]	absolute recovery ([2]; wastewater effluent) [%]	absolute recovery ([2]; wastewater influent) [%]	LC retention time [3] [min]	Compound
100	105	89.7	98.5	91	85.1	16.9	CCC1OC(=O)C(C)C(OC2CC(C)(OC)C(O)C(C)O2)C(C)C(OC2OC(C)CC([NH+](C)C)C2O)C(C)(OC)CC(C)C(=O)C(C)C(O)C1(C)O (stereo unspecified) [Clarithromycin]
103	109	94.4	88.7	94.7	87.9	18.2	CCCC(CCC)(C(=O)[O-])C(=O)O [Dipropylmalonic-acid]
102	124	75.8	64.3	66.3	66.2	3.04	CCC(CO)NCC[NH2+]C(CC)CO (stereo unspecified) [Ethambutol]
90.6	36.6	97.7	22	51.5	96.2	23.1	CCC(=O)OC(OP(=O)(CCCCc1ccccc1)CC(=O)N1CC(C2CCCCC2)CC1C(=O)[O-])C(C)C (stereo unspecified) [Fosinopril]
96.4	70.3	86.9	21.3	49.2	66.1	11.8	Cc1cc(N(C2OC(C(=O)[O-])C(O)C(O)C2O)S(=O)(=O)c2ccc(N)cc2)no1 (stereo unspecified) [Sulfamethoxazole-N1-Glucuronide]
102	106	68.6	71.5	70.5	77.3	12.2	C#CC[N+](C)([O-])C(C)Cc1ccccc1 (stereo unspecified) [Deprenyl-N-Oxide]
104	97.7	96.2	96.6	91.1	96.7	12.8	Nc1nnc(-c2cccc(Cl)c2Cl)c(N)n1 [Lamotrigin]
108	96.6	93.1	94.4	91.1	96.4	19.4	CC(C)N(C(=O)CS(=O)(=O)[O-])c1ccccc1 [Propachlor-ESA]
101	99.4	97.1	96.5	93.5	95	11.2	CC[NH+](CC)CC(=O)Nc1c(C)cccc1C [Lidocain]
119	4.7			55.3	38.7	21.6	CCCCCCCCCCCCCC[N+](C)(C)CCCCCCCCCCCCCC [Dimethylditetradecylammonium (=ATMAC-18)]
108	112	93.9	77.6	77.2	88.8	8.38	O=S(=O)([O-])c1ccc2ccc(S(=O)(=O)[O-])cc2c1 [2-7-Naphthalenedisulfonic-acid]
66.4	77.5	65.9	56.4	64.9	72.2	15.8	CCC1OC(=O)CC(O)C(C)C(OC2OC(C)C(OC3CC(C)(O)C(O)C(C)O3)C([NH+](C)C)C2O)C(CC=O)CC(C)C(=O)C=CC(C)=CC1COC1OC(C)C(O)C(OC)C1OC (stereo unspecified) [Tylosin]
90.5	92.4	63.9	98	75.8	73.4	22	Cc1cccc(N(C)C(=S)Oc2ccc3ccccc3c2)c1 [Tolnaftat]
99.3	90.4	92.4	91.4	83.6	93.6	10.4	Nc1ccc(S(=O)(=O)[N-]c2nccs2)cc1 [Sulfathiazol]
106	103	78.4	74.7	80	89.6	11.6	Cc1cccc(C)c1NC(=O)C1CCCC[NH+]1C (stereo unspecified) [Mepivacaine]
98.9	104	98	57.1	89.3	93.6	9.31	CS(=O)(=O)c1ccc(C(=O)[O-])c([N+](=O)[O-])c1 [Mesotrion-MNBA]
104	108	75.6	63.6	77	124	23.4	O=C([O-])c1cc(Oc2ccc(Cl)cc2Cl)ccc1[N+](=O)[O-] [Bifenox-acid]

Compound	absolute recovery ([1]; wastewater effluent) [%]	absolute recovery ([1]; wastewater influent) [%]	absolute recovery ([2]; nanopure water) [%]	absolute recovery ([2]; surface water) [%]	absolute recovery ([2]; wastewater effluent) [%]	absolute recovery ([2]; wastewater influent) [%]	LC retention time [3] [min]
CC(C)[NH+](CCC(C(N)=O)(c1ccccc1)c1ccccn1)C(C)C (stereo unspecified) [Disopyramide]	98.1	106	90	94.4	92	104	12.2
CCOP(=O)(OCC)OC(=CCl)c1ccc(Cl)cc1Cl [Chlorfenvinphos]	112	104	85.1	86.4	94.3	86.9	20.9
CC([NH3+])Cc1ccccc1 (stereo unspecified) [Amphetamin]	97.8	85.5	97.7	85.5	87.4	91.8	10.4
CC(O)(CS(=O)(=O)c1ccc(F)cc1)C(=O)Nc1ccc(C#N)c(C(F)(F)F)c1 (stereo unspecified) [Bicalutamid]		102	100	97	94.3	95.2	18.6
CN1C(=O)CN=C(C2=CCCCC2)c2cc(Cl)ccc21 [Tetrazepam]	105	100	86.9	63.8	64.4	72.4	19.9
